The numbers were not newly measured in paper PMC10654029 (The Journal of Biological Chemistry, 2023), which cites them from elsewhere.

The test system of data set [1] is Ba/F3 cells expressing METex14 F1200I. As to conditions: Ba/F3 cells expressing METex14 F1200I vs WT.
Data set [2] relates to Ba/F3 cells expressing METex14 L1195V. The settings on record: Ba/F3 cells expressing METex14 L1195V vs WT.

With `CN1CCC(COc2cnc(-c3cccc(Cn4nc(-c5cccc(C#N)c5)ccc4=O)c3)nc2)CC1` [tepotinib], the “decrease of cellular potency compared with the WT” value in data set [1] and in data set [2] was about 15 fold throughout.
